Data as given in US11701372B2, “Inhalation formulations of 1'-cyano substituted carba-nucleoside analogs” (priority 2020, dated 2023).
Read-outs that look alike come from different tables or passages of the source.

Columns and labels:
[1] = assay type: physicochemical; settings: for % assay/degs / Total degs / pH: T = 0
Experimental: For each condition, samples were staged at ambient and refrigerated conditions. Samples were analyzed for % assay/degs, appearance, reconstitution time, pH, and compared to T=0. The structures of the key impurities/metabolites are shown below.

[2] = Nebulizer performance (PARI LC Sprint jet nebulizer); assay type: physicochemical; settings: 5 mg/mL Formula Ia, 15% w/v SBECD, 8 mL charge; collected aerosol and residual solution
[3] = In use testing of reconstituted solutions in IV bags and IV tubings; assay type: physicochemical
Source text: The IV bags and IV tubings were sampled over time and tested for % assay/degradation.

[4] = in vivo; settings: both, monkey, inhaled or intranasal
Experimental: The average deposited dose was calculated at 0.168 mg/kg and 0.536 mg/kg, respectively. Plasma, peripheral blood mononuclear cells (PBMCs), trachea, bronchi, lung lobe, liver, kidney, nasal mucosa and nasopharyngeal mucosa samples were collected in this study.

With CCC(CC)COC(=O)[C@H](C)N[P@](=O)(OC[C@H]1O[C@@](C#N)(c2ccc3c(N)ncnn23)[C@H](O)[C@@H]1O)Oc1ccccc1 [Formula Ia, (S)-2-ethylbutyl 2-(((S)-(((2R,3S,4R,5R)-5-(4-aminopyrrolo[2,1-f][1,2,4]triazin-7-yl)-5-cyano-3,4-dihydroxytetrahydrofuran-2-yl)methoxy)(phenoxy)phosphoryl)amino)propanoate] the “Total degs, difference from T = 0” value ([1]; pH 3.5, Ambient, 2 h) was 0.0%, the “pH, difference from T = 0” value ([1]; pH 3.5, Ambient, 2 h) was 0.0 and the “% assay/degs, difference from T = 0” value ([1]; pH 3.5, Ambient, 8 h) was 0.2%. The “Total degs, difference from T = 0” value ([1]; pH 3.5, Ambient, 8 h) was 0.0%, the “pH, difference from T = 0” value ([1]; pH 3.5, Ambient, 8 h) was 0.0 and the “% assay/degs, difference from T = 0” value ([1]; pH 3.5, Ambient, 24 h) was 0.6%. The “Total degs, difference from T = 0” value ([1]; pH 3.5, Ambient, 24 h) was 0.0%, the “pH, difference from T = 0” value ([1]; pH 3.5, Ambient, 24 h) was 0.0 and the “% assay/degs, difference from T = 0” value ([1]; pH 3.5, Ambient, 48 h) was 0.3%. The “Total degs, difference from T = 0” value ([1]; pH 3.5, Ambient, 48 h) was 0.1%, the “pH, difference from T = 0” value ([1]; pH 3.5, Ambient, 48 h) was 0.0 and the “% assay/degs, difference from T = 0” value ([1]; pH 3.5, Ambient, 72 h) was 0.2%. The “Total degs, difference from T = 0” value ([1]; pH 3.5, Ambient, 72 h) was 0.1%, the “pH, difference from T = 0” value ([1]; pH 3.5, Ambient, 72 h) was −0.1 and the “% assay/degs, difference from T = 0” value ([1]; pH 3.5, Ambient, 96 h) was 0.0%. For the same compound, the “Total degs, difference from T = 0” value ([1]; pH 3.5, Ambient, 96 h) was 0.1%, the “pH, difference from T = 0” value ([1]; pH 3.5, Ambient, 96 h) was 0.0 and the “% assay/degs, difference from T = 0” value ([1]; pH 3.5, Ambient, 168 h) was 0.2%. For the same compound, the “Total degs, difference from T = 0” value ([1]; pH 3.5, Ambient, 168 h) was 0.2%, the “pH, difference from T = 0” value ([1]; pH 3.5, Ambient, 168 h) was 0.0 and the “% assay/degs” value ([1]; pH 3.5) was 99.1%. For the same compound, the Total degs ([1]; pH 3.5) was 0.1%, the pH ([1]; pH 3.5) was 3.5 and the “% assay/degs, difference from T = 0” value ([1]; pH 3.8, 2-8° C., 7.2 h) was −0.2%. The “Total degs, difference from T = 0” value ([1]; pH 3.8, 2-8° C., 7.2 h) was 0.0%, the “pH, difference from T = 0” value ([1]; pH 3.8, 2-8° C., 7.2 h) was −0.1 and the “% assay/degs, difference from T = 0” value ([1]; pH 3.8, 2-8° C., 24 h) was 0.3%. The “Total degs, difference from T = 0” value ([1]; pH 3.8, 2-8° C., 24 h) was 0.0%, the “pH, difference from T = 0” value ([1]; pH 3.8, 2-8° C., 24 h) was 0.0 and the “% assay/degs, difference from T = 0” value ([1]; pH 3.8, 2-8° C., 96 h) was 0.1%. The “Total degs, difference from T = 0” value ([1]; pH 3.8, 2-8° C., 96 h) was 0.0%, the “pH, difference from T = 0” value ([1]; pH 3.8, 2-8° C., 96 h) was −0.1 and the “% assay/degs, difference from T = 0” value ([1]; pH 3.8, 2-8° C., 168 h) was 0.1%. For the same compound, the “Total degs, difference from T = 0” value ([1]; pH 3.8, 2-8° C., 168 h) was 0.0%, the “pH, difference from T = 0” value ([1]; pH 3.8, 2-8° C., 168 h) was −0.1 and the “% assay/degs, difference from T = 0” value ([1]; pH 3.8, Ambient, 7.2 h) was 0.0%. The “Total degs, difference from T = 0” value ([1]; pH 3.8, Ambient, 7.2 h) was 0.0%, the “pH, difference from T = 0” value ([1]; pH 3.8, Ambient, 7.2 h) was 0.0 and the “% assay/degs, difference from T = 0” value ([1]; pH 3.8, Ambient, 24 h) was 0.4%. The “Total degs, difference from T = 0” value ([1]; pH 3.8, Ambient, 24 h) was 0.0%, the “pH, difference from T = 0” value ([1]; pH 3.8, Ambient, 24 h) was 0.0 and the “% assay/degs, difference from T = 0” value ([1]; pH 3.8, Ambient, 96 h) was 0.0%. The “Total degs, difference from T = 0” value ([1]; pH 3.8, Ambient, 96 h) was 0.1%, the “pH, difference from T = 0” value ([1]; pH 3.8, Ambient, 96 h) was −0.1 and the “% assay/degs, difference from T = 0” value ([1]; pH 3.8, Ambient, 168 h) was 0.0%. For the same compound, the “Total degs, difference from T = 0” value ([1]; pH 3.8, Ambient, 168 h) was 0.1%, the “pH, difference from T = 0” value ([1]; pH 3.8, Ambient, 168 h) was −0.1 and the “% assay/degs” value ([1]; pH 3.8) was 98.7%. The Total degs ([1]; pH 3.8) was 0.1%, the pH ([1]; pH 3.8) was 3.8 and the “% assay/degs, difference from T = 0” value ([1]; pH 4.0, 2-8° C., 7.2 h) was 0.0%. For the same compound, the “Total degs, difference from T = 0” value ([1]; pH 4.0, 2-8° C., 7.2 h) was 0.0%, the “pH, difference from T = 0” value ([1]; pH 4.0, 2-8° C., 7.2 h) was 0.0 and the “% assay/degs, difference from T = 0” value ([1]; pH 4.0, 2-8° C., 24 h) was 0.3%. The “Total degs, difference from T = 0” value ([1]; pH 4.0, 2-8° C., 24 h) was 0.0%, the “pH, difference from T = 0” value ([1]; pH 4.0, 2-8° C., 24 h) was 0.0 and the “% assay/degs, difference from T = 0” value ([1]; pH 4.0, 2-8° C., 96 h) was 0.2%. The “Total degs, difference from T = 0” value ([1]; pH 4.0, 2-8° C., 96 h) was 0.0%, the “pH, difference from T = 0” value ([1]; pH 4.0, 2-8° C., 96 h) was 0.0 and the “% assay/degs, difference from T = 0” value ([1]; pH 4.0, 2-8° C., 168 h) was 0.6%. For the same compound, the “Total degs, difference from T = 0” value ([1]; pH 4.0, 2-8° C., 168 h) was 0.0%, the “pH, difference from T = 0” value ([1]; pH 4.0, 2-8° C., 168 h) was −0.1 and the “% assay/degs, difference from T = 0” value ([1]; pH 4.0, Ambient, 7.2 h) was 0.3%. For the same compound, the “Total degs, difference from T = 0” value ([1]; pH 4.0, Ambient, 7.2 h) was 0.0%, the “pH, difference from T = 0” value ([1]; pH 4.0, Ambient, 7.2 h) was 0.0 and the “% assay/degs, difference from T = 0” value ([1]; pH 4.0, Ambient, 24 h) was 0.3%. For the same compound, the “Total degs, difference from T = 0” value ([1]; pH 4.0, Ambient, 24 h) was 0.0%, the “pH, difference from T = 0” value ([1]; pH 4.0, Ambient, 24 h) was 0.0 and the “% assay/degs, difference from T = 0” value ([1]; pH 4.0, Ambient, 96 h) was 0.0%. The “Total degs, difference from T = 0” value ([1]; pH 4.0, Ambient, 96 h) was 0.1%, the “pH, difference from T = 0” value ([1]; pH 4.0, Ambient, 96 h) was 0.0 and the “% assay/degs, difference from T = 0” value ([1]; pH 4.0, Ambient, 168 h) was −0.2%. The “Total degs, difference from T = 0” value ([1]; pH 4.0, Ambient, 168 h) was 0.1%, the “pH, difference from T = 0” value ([1]; pH 4.0, Ambient, 168 h) was −0.1 and the “% assay/degs” value ([1]; pH 4.0) was 98.6%. The Total degs ([1]; pH 4.0) was 0.1%, the pH ([1]; pH 4.0) was 4.0 and the “change in % peak area for Formula Ia or its identified impurities after nebulization” value [2] was “No significant change”. The Total degradation ([3]; 0 h, 0.3 mg/mL) was 0.2 % w/w, the Total degradation ([3]; 0 h, 2 mg/mL) was 0.2 % w/w and the Total degradation ([3]; 4 h, 0.3 mg/mL) was 0.2 % w/w. It also gave a Total degradation ([3]; 4 h, 2 mg/mL) of 0.2 % w/w, a Total degradation ([3]; 6 h, 0.3 mg/mL) of 0.2 % w/w and a Total degradation ([3]; 6 h, 2 mg/mL) of 0.2 % w/w. The Total degradation ([3]; 8 h, 0.3 mg/mL) was 0.2 % w/w, the Total degradation ([3]; 8 h, 2 mg/mL) was 0.2 % w/w and the Total degradation ([3]; 24 h, 0.3 mg/mL) was 0.2 % w/w. For the same compound, the Total degradation ([3]; 24 h, 2 mg/mL) was 0.2 % w/w, the Total degradation ([3]; 48 h, 0.3 mg/mL) was 0.2 % w/w and the Total degradation ([3]; 48 h, 2 mg/mL) was 0.2 % w/w. It also gave an AUC(0-t) ([4]; 0.168 mg/kg) of 0.023 ± 0.008 µM·h, a Cmax ([4]; 0.168 mg/kg) of 39 ± 14 nM and a Tmax ([4]; 0.168 mg/kg) of 0.52 h. For the same compound, the AUC(0-t) ([4]; 0.536 mg/kg) was 0.146 ± 0.045 µM·h, the Cmax ([4]; 0.536 mg/kg) was 101 ± 19 nM and the Tmax ([4]; 0.536 mg/kg) was 1.53 h.
